In general, Ki refers to the equilibrium dissociation constant of an inhibitor or competing ligand from its target. Low values mean tighter binding, high ones weaker binding.

This assay addresses human μ opiate receptor (Homo sapiens, UniProt P35372). Nature of the assay: μ binding, displacement of [3H]-naloxone. Particulars: CHO-K1 membranes expressing human μ opiate receptor; Cheng-Prusoff.

human μ opiate receptor, sequence (P35372 whole entry): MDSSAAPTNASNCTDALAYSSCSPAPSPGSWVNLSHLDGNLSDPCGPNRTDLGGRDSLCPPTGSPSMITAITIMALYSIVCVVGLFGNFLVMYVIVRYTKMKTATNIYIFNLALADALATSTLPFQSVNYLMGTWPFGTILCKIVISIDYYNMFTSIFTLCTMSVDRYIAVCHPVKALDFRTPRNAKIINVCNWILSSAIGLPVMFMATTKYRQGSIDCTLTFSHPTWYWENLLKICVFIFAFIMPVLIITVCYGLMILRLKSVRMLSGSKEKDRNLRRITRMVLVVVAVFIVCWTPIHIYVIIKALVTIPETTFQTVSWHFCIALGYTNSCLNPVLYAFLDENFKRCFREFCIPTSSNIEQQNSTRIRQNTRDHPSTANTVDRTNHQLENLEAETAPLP

Take `CN(C)C1(Cc2ccccc2)CC=C(c2cc3ccccc3n2C)CC1` (stereo not shown) [Example 302, [1-Benzyl-4-(1-methyl-1H-indol-2-yl)cyclohex-3-enyl]dimethylamine]: the Ki is 0.103 µM.

For the origin of these results see US8138187B2, “Substituted heteroaryl derivatives” (Gruenenthal GmbH, priority 2006, dated 2012).
